# Reference: patent US20220332758A1, “PEPTIDE-BASED COMPOSITIONS AND METHODS FOR TREATING ALZHEIMER'S DISEASE” (Board of Regents, The Universityof Texas System, priority 2019, published 2022)
# Entries after “also recorded” stand apart in the source; their conditions may differ.
# Assays:
# [1] = biological target: T1, proteasome ChT-L activity in SK-N-SH (ATCC HTB-11) cells (Homo sapiens, UniProt P25787+P60900); experiment: ChT-L proteasome activity in lysates of SK-N-SH cells treated with TAT peptides; assay type: cell-based; settings: for proteasome ChT-L activity in lysates from treated cells vs control lysates: 1 μM, 24 h
# T1 construct: host or cells: SK-N-SH human neuroblastoma cells
# Protocol: Cell Culture. Human SK-N-SH neuroblastoma cell line (ATCC® HTB-11™ American Type Culture Collection; Manassas, Va.) were cultured according to ATCC specifications (EMEM, 10% heat-inactivated FBS) The cells at passage 2-4 were treated with 1 μM TAT peptides or the DMSO vehicle diluted with the medium 1: 1000, for 24 h. The content of live cells was determined by the Trypan Blue-exclusion assay. The cells were harvested, washed twice in PBS, resuspended in dilution buffer (as described herein) and stored in −80° C. To prepare lysates, the thawed preparations were vortexed with glass beads and centrifuged for 5 min 5,000×g (4° C.). The supernatant was centrifuged for 20 min 14,000×g (4° C.). The resulting supernatant—“crude lysate” was diluted to 1 mg/mL of total protein with dilution buffer. 1 μg of lysate per assay (reaction buffer: 50 mM Tris/HCl pH 8, 0.1 mM MgCl2, 0.2 mM ATP, 0.1 mM dithiothreitol, 50 μM Suc-LLVY-AMC (SEQ ID NO: 14)) was used for determination of ChT-L activity in a 96-well format, as above.
# [2] = Stability in human serum; assay type: in vitro ADME
# [3] = biological target: T2, purified human 20S proteasome (Homo sapiens, UniProt P25787+P60900); experiment: In-gel overlay activity on non-denaturing gel, 20S proteasome; assay type: biochemical; settings: 1 microM, 15 min, 100 microM Suc-LLVY-MCA
# T2 construct: purified from erythrocytes; purchased Boston Biochem, Inc. or Enzo Life Sciences, Inc; host or cells: human erythrocytes
# Protocol: (§1) Purified human 20S and 26S proteasomes were separated on non-denaturing polyacrylamide gel. The gel was overlayed with reaction buffer containing 100 microM fluorogenic peptide substrate Suc-LLVY-MCA (SEQ ID NO: 14) and 1% of vehicle solvent (DMSO) or the substrate and 1 microM Tat1 8,9 TOD. The gel was photographed after 15 min of incubation and then stained for the total protein content with Coomassie Brilliant Blue, and photographed. […] The protein content was the same for the control and Tat-overlayed sets. The activities of both 26S and 20S are enhanced by Tat1 8,9 TOD. The enhanced activity of 26S was not the result of Tat1 8,9 TOD—induced breaking of the 26S assembly into its components (19S and 20S) and activation of the released 20S catalytic core that still remains in the gel together with the whole 26S assembly. […] Traces of the 20S in both control 26S preparation and preparation pre-incubated with Tat1 8,9 TOD.
# [4] = biological target: T3, purified human 26S proteasome (Homo sapiens, UniProt P25787+P60900); experiment: In-gel overlay activity on non-denaturing gel, 26S proteasome; assay type: biochemical; settings: 1 microM, 15 min, 100 microM Suc-LLVY-MCA
# T3 construct: purchased Boston Biochemicals (Boston Biochem)
# Protocol: as §1
# [5] = test system: Elav-gs-GAL4>UAS-APP; UAS-BACE1 flies; experiment: Olfaction aversion training in fly AD model; assay type: in vivo, Drosophila melanogaster; settings: 1 μM mixed into food, 10 days
# Protocol: Olfactory aversion training. Experiments were performed broadly (Malik, B. R. & Hodge, J. J. J Vis Exp, e50107, doi:10.3791/50107 (2014)). Animals were exposed (via an air pump) in alternation to two neutral odors (3-octanol and 4-methylcyclohexanol, prepared as a 1/10 dilution in mineral oil) for 5 minutes under low red-light and a 100V 60 Hz shock was applied during exposure to one of the two odors. The odor associated with the electric shock was alternated between vials. After three training rounds per odor, animals were given one hour to recover then placed in a T-maze (Celexplorer labs) with opposing odors from either side. Flies were allowed two minutes to explore the maze after which the maze sections were sealed and the number of flies in each chamber scored.
# The compounds were tested as follows: in neuroblast MC65 cell culture model with overexpressed C99 fragment of amyloid precursor protein (APP) upon tetracycline withdrawal or with external APP added; and in fruit fly (D. melanogaster) model of AD with overexpressed APP and BACE1. The compounds (1 μM) were mixed with food. Flies were trained to recognize “positive” and “negative” odors (olfaction aversion). The compounds were also treated in hAPP (J20) mice which overexpress a familial variant of APP. The compounds were injected for 14 days (1 mg/kg). Novel Object Recognition assay was used to test learning and memory.
# [6] = test system: elav-GS-Gal4>UAS-APP, UAS-Bace1 flies; experiment: Spontaneous activity in fly AD model; assay type: in vivo, Drosophila melanogaster; settings: 1 μM in food
# Protocol: Spontaneous activity and circadian rhythm. Spontaneous activity was monitored using a Trikinetic activity monitor, in which vials containing 20-25 flies were secured and activity recorded in a humidified 24° C. incubator with 12:12-hour light:dark cycles as described herein. Flies were allowed to acclimate for 8 hours prior to data collection. Activity was averaged for each twelve-hour cycle and normalized per fly.
# [7] = test system: MC65 cells; experiment: Cell death in MC65 AD cell model under tetracycline withdrawal (WST-1 viability); assay type: cell-based, human
# Protocol: Cell culture. Cells were cultured in EMEM (SK-N-SH), DMEM (MC65) supplemented with 10% heat-inactivated fetal bovine serum and antibiotics (100 U mL^−1 penicillin, 100 μg mL^−1 streptomycin, and 0.25 μg mL^−1 of amphotericin B; Gibco-Invitrogen). Incubators were maintained at 5% CO2, and 37° C. Medium was replaced every 3-4days. For most experiments, cells were seeded at 100,000 cells mL^−1 in either 6-well or 96 well plates 24 h prior to assay. In most cases, media was replaced with serum free optimem media 24 h prior to assay.
# Cell viability. Cell maintained in a clear 96 well plate. On the day of assay, 10 μl of WST-1 reagent (11644807001, Sigma Aldrich) was added to each well and cells incubated in a 37° C. 5% CO2 incubator for 2-4 hours. Absorbance was measured at 450 nm using a gemini series spectrophotometer.
# The compounds were tested as follows: in neuroblast MC65 cell culture model with overexpressed C99 fragment of amyloid precursor protein (APP) upon tetracycline withdrawal or with external APP added; and in fruit fly (D. melanogaster) model of AD with overexpressed APP and BACE1. The compounds (1 μM) were mixed with food. Flies were trained to recognize “positive” and “negative” odors (olfaction aversion). The compounds were also treated in hAPP (J20) mice which overexpress a familial variant of APP. The compounds were injected for 14 days (1 mg/kg). […]
# [8] = test system: hAPP(J20) mice; experiment: Novel object recognition assay in hAPP(J20) mice; assay type: in vivo, mouse; settings: 14 days IP injection, 1 mg/kg, listed as Tat-TOD
# Protocol: Novel object recognition test. To measure recognition of a previously encountered object, animals are placed in an opacified rat cage with bedding for 10 min. The following (training) day, mice are returned to the chamber, which now contains two identical objects, and allowed to explore the arena for 5 minutes. Percent of time exploring each object is recorded using TopScan. During testing (4 hours after training) one of the objects in the box is replaced with a new object and the side of the replaced object randomized amongst animals. Mice are given 5 mins to explore the two objects, and percent time exploring each object is recorded using TopScan. A discrimination ratio calculated as (tnovel−tfamiliar)/(tnovel+tfamiliar) is used as a measure of retention of the priorly encountered object (positive and negative discrimination ratio values indicate a preference for exploration of the novel and familiar objects, respectively).
# The compounds were tested as follows: in neuroblast MC65 cell culture model with overexpressed C99 fragment of amyloid precursor protein (APP) upon tetracycline withdrawal or with external APP added; and in fruit fly (D. melanogaster) model of AD with overexpressed APP and BACE1. The compounds (1 μM) were mixed with food. Flies were trained to recognize “positive” and “negative” odors (olfaction aversion). […]
# [9] = test system: APP, BACE1 and Aβ42 levels; experiment: Immunoblot of APP and BACE1 and Aβ42 Elisa in hAPP(J20) mice; assay type: in vivo, mouse; settings: 14 days treatment
# [10] = biological target: 20S proteasome (Homo sapiens, UniProt P25787+P60900); settings: cited from earlier work
SMILES,proteasome ChT-L activity in lysates from treated cells vs control lysates [1],"dose and time dependence of proteasome activation in cells ([1]; 0.5 or 1.0 μM, four or 24 h)",half-life [2],20S activity in gel overlay [3],26S activity in gel overlay [4],olfaction aversion training performance [5],spontaneous activity [6],survival of neuroblasts overexpressing APP ([7]; 1 μM),"cell death under tetracycline withdrawal ([7]; MC65, WST1 viability assay)","learning and memory, novel object recognition [8]",APP protein levels [9],protein levels of BACE1 [9],protein levels of β-amyloid [9],degradation by 20S proteasome [10],stability in serum (in words) [2]
"N=C(N)NCCCC(NC(=O)CN)C(=O)NC(CCCCN)C(=O)NC(CCCCN)C(=O)NC(CCCNC(=N)N)C(=O)NC(CCCNC(=N)N)C(=O)NC(CCC(N)=O)C(=O)N1Cc2ccccc2C[C@H]1C(=O)N1C(C(=O)NC(CCCNC(N)N)C(=O)N2CCCC2C(=O)NC(CO)C(=O)O)CC2CCCCC21 (stereo partly drawn) [(5), GRKKRRQ-TOD-RPS]",significantly higher than activity in control lysates,substantially stronger after 4 h exposure than after 24 h,~2 h,enhanced,enhanced,Improved performance in olfaction aversion training,increased spontaneous activity,improves survival,significantly reduces cell death,efficiently explore their surroundings to recognize novel objects; also recorded: significantly enhances learning and memory,decline in both APP and BACE1 protein levels,significantly reduces,significantly reduces,resistant to degradation,–
NCCCCC(N)C(=O)NC(CCCCN)C(=O)NC(CCCCN)C(=O)Nc1cc(NC(=O)C(CCCCN)NC(=O)C(CCCCN)NC(=O)C(N)CCCCN)cc(C(=O)NC(CCCCN)C(=O)NC(CCCCN)C(=O)NC(CCCCN)C(=O)O)c1 (stereo not drawn) [(8)],significantly higher than activity in control lysates,–,–,–,–,Improved performance in olfaction aversion training,increased spontaneous activity,–,–,–,–,–,–,–,rapidly modified from triple-lysines to double-lysines
